# Laboratory results from ChEMBL document CHEMBL3352426, “A natural phenylpropionate derivative from Mirabilis himalaica inhibits cell proliferation and induces apoptosis in HepG2 cells” (Bioorg Med Chem Lett, 2014).
# Active and inactive are the calls of the source. The calls are words filed in the database; no cut-off is given here.
# What was measured:
# HepG2 [1] = assay: Cytotoxicity against human HepG2 cells assessed as inhibition of cell proliferation after 48 hrs by CCK8 assay; assay type: functional, cell-based
# HepG2 [2] = assay: Cytotoxicity against human HepG2 cells assessed as inhibition of cell proliferation at 2.5 to 40 ug/ml by CCK8 assay; assay type: functional, cell-based; conditions: TDE = time-dependent effect
# HepG2 [3] = assay: Cytotoxicity against human HepG2 cells assessed as inhibition of cell proliferation at 20 ug/ml by MTT assay; assay type: functional
# HepG2 [4] = assay: Induction of apoptosis in human HepG2 cells assessed as assessed as accumulation at G0/G1 phase after 48 hrs by propidium iodide staining-based flow cytometric analysis (reference value: 70.8%); assay type: functional
# HepG2 [5] = assay: Induction of apoptosis in human HepG2 cells assessed as assessed as accumulation at S phase after 48 hrs by propidium iodide staining-based flow cytometric analysis (reference value: 18.9%); assay type: functional
# HepG2 [6] = assay: Induction of apoptosis in human HepG2 cells assessed as assessed as accumulation at G2/M phase after 48 hrs by propidium iodide staining-based flow cytometric analysis (reference value: 10.4%); assay type: functional
# HepG2 [7] = assay: Effect on CDK2 expression in human HepG2 cells after 48 hrs by Western blot analysis; assay type: functional, cell-based
# HepG2 [8] = assay: Effect on CDK4 expression in human HepG2 cells after 48 hrs by Western blot analysis; assay type: functional, cell-based
# HepG2 [9] = assay: Effect on CDK6 expression in human HepG2 cells after 48 hrs by Western blot analysis; assay type: functional, cell-based
# HepG2 [10] = assay: Effect on Cyclin D1 expression in human HepG2 cells after 48 hrs by Western blot analysis; assay type: functional, cell-based
# HepG2 [11] = assay: Effect on Cyclin A expression in human HepG2 cells after 48 hrs by Western blot analysis; assay type: functional, cell-based
# HepG2 [12] = assay: Cytotoxicity against human HepG2 cells assessed as decrease in positive staining after 1 hr by BrdU immunofluorescence assay relative to untreated control; assay type: functional
# HepG2 [13] = assay: Induction of apoptosis in human HepG2 cells assessed as assessed as increase in apoptotic cells after 48 hrs by annexin V/propidium iodide staining-based flow cytometric analysis; assay type: functional
# [14] = Cytotoxicity against human L02 cells assessed as assessed as apoptotic cells after 48 hrs by annexin V/propidium iodide staining-based flow cytometric analysis; assay type: cell-based; conditions: l02, 48 h
# HepG2 [15] = assay: Induction of alteration in mitochondrial membrane potential in human HepG2 cells assessed as decrease Rh-123 fluorescence at 5 ug/ml after 48 hrs by flow cytometric analysis; assay type: functional; conditions: HepG2, 48 h
# HepG2 [16] = assay: Induction of alteration in mitochondrial membrane potential in human HepG2 cells assessed as decrease Rh-123 fluorescence at 10 ug/ml after 48 hrs by flow cytometric analysis; assay type: functional; conditions: HepG2, 48 h
# HepG2 [17] = assay: Induction of alteration in mitochondrial membrane potential in human HepG2 cells assessed as decrease Rh-123 fluorescence at 20 ug/ml after 48 hrs by flow cytometric analysis; assay type: functional; conditions: HepG2, 48 h
# HepG2 [18] = assay: Induction of alteration in mitochondrial membrane potential in human HepG2 cells assessed as decrease Rh-123 fluorescence after 48 hrs by flow cytometric analysis; assay type: functional, cell-based
# HepG2 [19] = assay: Induction of apoptosis in human HepG2 cells assessed as increase in Bax level after 48 hrs by Western blot analysis; assay type: functional, cell-based
# HepG2 [20] = assay: Induction of apoptosis in human HepG2 cells assessed as decrease in Bcl2 level after 48 hrs by Western blot analysis; assay type: functional, cell-based
# HepG2 [21] = assay: Induction of apoptosis in human HepG2 cells assessed as caspase 3 activation after 48 hrs by Western blot analysis; assay type: functional, cell-based
# HepG2 [22] = assay: Induction of apoptosis in human HepG2 cells transfected with pBabe-puro assessed as apoptotic cell accumulation after 48 hrs by annexin V/propidium iodide staining-based flow cytometric analysis; assay type: functional
# HepG2 [23] = assay: Induction of apoptosis in human HepG2 cells transfected with pBabe-puro with Bcl2 assessed as apoptotic cell accumulation after 48 hrs by annexin V/propidium iodide staining-based flow cytometric analysis; assay type: functional
# HepG2 [24] = assay: Increase in p53 expression in human HepG2 cells after 48 hrs by Western blot analysis; assay type: functional, cell-based
# HepG2 [25] = assay: Increase in p21 expression in human HepG2 cells after 48 hrs by Western blot analysis; assay type: functional, cell-based
# HepG2 [26] = assay: Induction of apoptosis in human HepG2 cells transfected with p53 shRNA assessed as apoptotic cell accumulation after 48 hrs by annexin V/propidium iodide staining-based flow cytometric analysis; assay type: functional
# HepG2 [27] = assay: Antitumor activity against human HepG2 cells injected in ip dosed mouse assessed as reduction in tumor size treated for 13 days; assay type: functional
# Mus musculus = assay: Toxicity in human HepG2 cells injected in ip dosed mouse assessed as change in body weight; assay type: organism-based; conditions: in vivo
smiles,measurement,setting,value
COc1cc(OC(=O)/C=C/c2ccc(O)cc2OC)ccc1O,inhibition,HepG2 [1],Dose-dependent effect
same,IC50,"HepG2 [1]; HepG2, 48 h",15.1 µg/mL
same,inhibition,HepG2 [2],tde
same,inhibition at 20 µg/mL,HepG2 [3],37%
same,Activity,HepG2 [4],52.6%
same,Activity,HepG2 [5],36%
same,Activity,HepG2 [6],11.4%
same,Activity,HepG2 [7],inactive
same,Activity,HepG2 [8],inactive
same,Activity,HepG2 [9],inactive
same,Activity,HepG2 [10],inactive
same,Activity,HepG2 [11],inactive
same,inhibition (INH),HepG2 [12],40%
same,Activity,HepG2 [13],89.9%
same,Activity,[14],Non-toxic
same,inhibition at 5 µg/mL,HepG2 [15],37.1%
same,inhibition at 10 µg/mL,HepG2 [16],69.5%
same,inhibition at 20 µg/mL,HepG2 [17],84.9%
same,inhibition,HepG2 [18],Dose-dependent effect
same,Activity,HepG2 [19],Active
same,inhibition,HepG2 [20],Active
same,Activity,HepG2 [21],Active
same,Activity,HepG2 [22],75.4%
same,Activity,HepG2 [23],26.9%
same,Activity,HepG2 [24],Active
same,Activity,HepG2 [25],Active
same,Activity,HepG2 [26],68.8%
same,inhibition (INH),HepG2 [27],50%
same,Activity,Mus musculus,Non-toxic
